The nature of series [1]: COH-SR4 in mice serum, HPLC analysis. Particulars: 4 mg/kg oral. In kind it is in vivo, mouse. The method, then: Hsd: Athymic nude nu/nu mice obtained from Harlan, Indianapolis, Ind. were used for the oral administration of COH-SR4 on lung cancer progression in in-vivo xenograft model. Twelve 10-weeks-old mice were divided into two groups of 6 animals (treated with corn oil (vehicle), and COH-SR4 4 mg/kg b.w.). All animals were subcutaneously injected with 2×10^6 H358 cells in 100 μL of PBS into one flank of each mouse. Treatment was started 10 days after the implantation of cells to see palpable tumor growth. Treatment consisted of 0.1 mg (4 mg/kg b.w.) of COH-SR4/mice in 200 μL corn oil by oral gavage alternate day. Control groups were treated with 200 μL corn oil by oral gavage alternate day. Animals were examined daily for signs of tumor growth and body weights were recorded. […] Tumors were measured in two dimensions using calipers. […] (FIG. 81B). […] Photographs of animals were taken at day 1, day 10, day 14, day 18, day 30 and day 60 after subcutaneous injection, are shown for all groups (FIG. 81D). The absorption of orally administered COH-SR4 in mice was assessed.

For series [2], the system named is AMPK, ACC. Briefly: AMP:ATP ratio and AMPK/ACC phosphorylation in liver of db/db mice. To be noted: 5 weeks. The format is in vivo, mouse. The method, then: ATP production from cells treated with test compounds were measured using the Luminescent ATP Detection Assay Kit. AMP, ATP and ADP were measured by UV-HPLC.
All animal experiments were carried out in accordance with the protocols approved by the Institutional Animal Care and Use Committee of the City of Hope. Nine-week old male C57BL/6J mice fed on high fat diet (HFD, 60% fat) and 10-week old db/db mice were given COH-SR4 (5 mg/kg B.W.) or vehicle (corn oil) via oral gavage every other day for six and five weeks, respectively. Oral glucose tolerance test was performed on animals after an overnight fast. All other metabolic parameters were measured at the end of study. Liver samples were stained with H&E and Oil Red O.
Total intracellular ATP production in cells treated with either 5 μM COH-SR4 or 5 μM FCCP was measured by bioluminescence assay and expressed as percentage of time-matched vehicle (DMSO) control (FIG. 84A). Intracellular AMP: ATP ratios increased in HepG2 liver carcinoma cells following 1 h treatment with either 5 μM COH-SR4 or 5 μM FCCP (FIG. 84B) and in liver of db/db mice treated with COH-SR4 (5 mg/kg B.W.) for 5 weeks (FIG. 84C). All data represented are mean±SEM, *P<0.05.
Treatment with the AMPK inhibitor Compound C (20 μM) diminished AMPK activation and ACC phosphorylation by either uncoupler COH-SR4 or FCCP (FIG. 84F).

Series [3] has as its system B16 mouse melanoma tumor. As to the kind of experiment: Histopathology (IHC) of B16 melanoma tumor sections. In kind it is in vivo. Particulars: treated vs control tumors. The method, then:
B16 melanoma bearing C57B mice tumor sections were treated without or with COH-SR4, and used for histopathologic analyses.
H&E stain, or hematoxylin and eosin stain, a general gross morphology stain were used. […] Eosin was pink and stained proteins nonspecifically. In a typical tissue, nuclei were stained blue, whereas the cytoplasm and extracellular matrix had varying degrees of pink staining. The pink coloration in the control tumor cells indicated cell proliferation (FIG. 57)
IHC analyses for Ki-67 expression (marker of cellular proliferation), CD31 (angiogenesis marker), and pAMPK (cellular regulator of lipid and glucose metabolism) from tumors in mice of control and COH-SR4-treated groups were carried out. Statistical significance of difference was determined by two-tailed Student's t test. When COH-SR4-treated tumor sections were compared with the control, p<0.001. […] Sections were counterstained with Hematoxylin (blue). Photomicrographs at 40× magnification were acquired using Olympus Provis AX70 microscope. Percent staining was determined by measuring positive immuno-reactivity per unit area. Arrows indicated the areas for positive staining for an antigen. The intensity of antigen staining was quantified by digital image analysis. Bars represented mean+S.E. (n=5); “*” means p<0.001 compared with control.

For series [4], the system named is H358. Briefly: Colony formation assay, H358. Particulars: 1.5 μM. The format is cell-based, human. The procedure: Cell survival was evaluated using a standard colony-forming assay. In total, 1×10^5 cells/mL were incubated with COH-SR4 (1.5 μM or 5 μM) or elesclomol (5 μM) for 24 h, and aliquots of 50 or 100 μL were added to 60 mm size petri dishes, containing 4 mL culture medium. After 7 or 10 days, adherent colonies were fixed, stained with 0.5% methylene blue for 30 min and colonies were counted using the Innotech Alpha Imager HP (91).
The effect of COH-SR4 was first examined in a NCI panel of cancer cell lines, the results of which indicated good activity of COH-SR4 towards lung cancer (FIG. 78A). […] Values are presented as mean±SD from two separate determinations with eight replicates each (n=16) (FIG. 78B). The COH-SR4 treatment exerted a significant inhibitory effect on the survival of lung cancer cells [IC50: H1417 cells-1.2±0.2 μM, H1618 cells-1.5±0.2 μM, H358 cells-2.1±0.2 μM and H520 cells-2.4±0.3 μM]. […] Following initial screening for the anticancer activity of COH-SR4, the effect of COH-SR4 on clonogenic potential was studied. Standard colony-forming assay was performed and the colonies were counted using Innotech Alpha Imager HP. […] The effect of COH-SR4 on induction of apoptosis was further investigated. […] TUNEL assay was performed using Promega fluorescence detection kit and examined using Zeiss LSM 510 META laser-scanning fluorescence microscope with filters 520 and 620 nm. […]

Series [5] deals with H1618 cells. As to the kind of experiment: MTT assay, H1618. In kind it is cell-based. Particulars: Homo sapiens, 48 h. The procedure: Cell density measurements were performed using a hemocytometer to count reproductive cells resistant to staining with trypan blue. Approximately 20,000 cells were plated into each well of 96-well flat-bottomed micro-titer plates. After 12 h or 24 h incubation at 37° C., medium containing either COH-SR4 (ranging 0-200 μM) or elesclomol (ranging 0-20 μM) were added to the cells. After 24 h, 48 h or 96 h incubation, 20 μL of 5 mg/mL MTT were introduced to each well and incubated for 2 h. The plates were centrifuged and medium was decanted. Cells were subsequently dissolved in 100 μl DMSO with gentle shaking for 2 h at room temperature, followed by measurement of OD570 (91).
The effect of COH-SR4 was first examined in a NCI panel of cancer cell lines, the results of which indicated good activity of COH-SR4 towards lung cancer (FIG. 78A). […] Values are presented as mean±SD from two separate determinations with eight replicates each (n=16) (FIG. 78B). […] Standard colony-forming assay was performed and the colonies were counted using Innotech Alpha Imager HP. […] TUNEL assay was performed using Promega fluorescence detection kit and examined using Zeiss LSM 510 META laser-scanning fluorescence microscope with filters 520 and 620 nm. […]
On the technique in general: Formazan colour is commonly taken as a measure of viable cells.

Broadly, the IC50 is the concentration at which inhibition is half-maximal. Read a high IC50 as weaker potency.

`O=C(Nc1cc(Cl)cc(Cl)c1)Nc1cc(Cl)cc(Cl)c1` [COH-SR4, 1,3-bis(3,5-dichlorophenyl) urea] registered a serum concentration in series [1] of 1100 ± 300 nM. Further, in series [2] (5 mg/kg B.W.), the “intracellular AMP:ATP ratios in liver” value is given as “increased”. Further, the “AMPK and ACC phosphorylations in liver” value in series [2] is “Increased AMPK and ACC phosphorylations”. In series [3], the “CD31 (angiogenesis marker)” value is recorded as “decreased CD31”, the “Ki-67 expression (cellular proliferation)” value is “decreased Ki67” and the pAMPK entry is given as “increased pAMPK”. The colony formation in series [4] turned out to be 47±7%. In series [5], this compound registered a half-inhibitory concentration (IC50) of 1500 ± 200 nM.

These data come from patent US9808434B2, “Compound for treating cancer and diabetes” (CITY OF HOPE, priority 2011, dated 2017).
